Where two headings read alike, the source gives them in different places. Starred links: 1 amine or outer side, 2 acyl side, 3 side chain; linkers in the order of their positions; H or OH if unused. Positions of bridges follow the written chain, without caps; N, C: chain ends. Non-standard residues stand in square brackets, D forms with d. Residues, ends and D or L forms follow the SMILES beside them. *: point of attachment. X1 = CC(C)CCCCCCCCC[C@H](CC(=O)[*:1])O[*:2]; Heptadecanoyl = CCCCCCCCCCCCCCCCC(=O)*; Stearoyl = CCCCCCCCCCCCCCCCCC(=O)*; Myristoyl = CCCCCCCCCCCCCC(=O)*; Boc = CC(C)(C)OC(=O)*; Nlys = NCCCCNCC(=O)O
Key:
[1] = system: HeLa (human cervical adenocarcinoma) cells; assay type: cell-based; details: 72 h
Method: (§1) The MTT and CV assays were employed for initial cytotoxicity screening and determination of half-maximal inhibitory concentrations (IC50), as described previously. Cells were seeded in 96-well plates and incubated for 24 h prior to treatment. B16F10, HT-29, HeLa, and NIH3T3 cells were seeded at a density of 2000 cells per well, while PC3 cells were seeded at 6000 cells per well due to their slower proliferation rate. For fast screening, cancer cells were treated with two concentrations of each LLP (0.1 µM and 10 µM) for 72 h in triplicate, with four replicates in each experiment. […] Digitonin was used as a positive control in all assays. Following treatment, absorbance was measured using a microplate reader (SpectraMax, Molecular Devices, San Jose, CA, USA) at 540 nm, with a reference wavelength of 670 nm. Cell viability was calculated as a percentage of untreated control wells.

[2] = system: HeLa (human cervical adenocarcinoma) cells; assay type: cell-based; details: 72 h; remark: listed apart in the source
Method: as §1

[3] = system: B16F10 (mouse skin melanoma) cells; assay type: cell-based; details: 72 h
Method: as §1

[4] = system: B16F10 (mouse skin melanoma) cells; assay type: cell-based; details: 72 h; remark: listed apart in the source
Method: as §1

[5] = system: HT-29 (human colon adenocarcinoma) cells; assay type: cell-based; details: 72 h
Method: as §1

[6] = system: PC3 (human prostate cancer) cells; assay type: cell-based; details: 72 h
Method: as §1

[7] = system: HT-29 (human colon adenocarcinoma) cells; assay type: cell-based; details: 72 h; remark: listed apart in the source
Method: as §1

[8] = system: PC3 (human prostate cancer) cells; assay type: cell-based; details: 72 h; remark: listed apart in the source
Method: as §1

B16F10 cells [9] = test: Cell cycle analysis (DAPI staining, flow cytometry); assay type: cell-based, mouse; details: 72 h
Method: B16F10 cells were seeded overnight in 6-well plates at a density of 1 × 10^5 cells per well and treated for 72 h with selected active LLPs either at the IC50 or 2 × IC50 concentration. Following treatment, both floating and adherent cells were collected, washed with PBS, and fixed in 70% ethanol at 4 °C overnight. Fixed cells were stained with DAPI staining solution (1 µg/mL) for 30 min at 37 °C in the dark, followed by PBS washing to remove excess dye. Flow cytometric analysis was performed using a FACSAria III instrument (BD Biosciences, Eysins, Switzerland). Histograms of cell counts versus fluorescence intensity were generated and cell cycle distribution was determined based on mean fluorescence intensity values.

B16F10 cells [10] = test: Apoptosis by Annexin V-FITC/PI staining; assay type: cell-based, mouse; details: B16F10, IC50 concentration, 72 h
Method: B16F10 melanoma cells were seeded in 6-well plates at a density of 1 × 10^5 cells/well and incubated overnight to allow for cell adherence. […] Following treatment, both floating and adherent cells were harvested and washed with PBS. The cells were then resuspended in 100 μL of Annexin V binding buffer containing 5 μL of Annexin V-FITC and 2 μL of PI per sample. Staining was performed for 15 min at 37 °C in the dark. After staining, cells were washed with PBS and analyzed using a BD FACSAria III flow cytometer (BD Biosciences) to quantify the percentages of apoptotic cells.

caspases in B16F10 cells = test: ApoStat caspase detection assay; assay type: cell-based, mouse; details: B16F10, IC50 concentration, 72 h
Method: B16F10 cells were seeded in 6-well plates at a density of 1 × 10^5 cells per well and treated for 72 h with IC50 concentrations of selected active LLPs. Post-treatment, cells were harvested and washed with PBS. Cells were then stained with 100 μL of working ApoStat solution, prepared by diluting ApoStat reagent (FITC-VAD-FMK) in PBS containing 5% FCS (99 μL of PBS 5% FCS + 1 μL ApoStat per sample). The staining was performed for 30 min at 37 °C in the dark. Following incubation, cells were washed to remove unbound reagents and analyzed by flow cytometry using a FACSAria III system (BD Biosciences). The fluorescence intensity of FITC was measured to assess caspase production, with increased fluorescence indicating elevated caspase activity.

B16F10 cells [11] = test: CFSE-based cell proliferation assay; set-up: species or system mouse; details: B16F10, IC50 concentration, 72 h
Method: B16F10 cells were stained with 1 µM carboxyfluorescein succinimidyl ester (CFSE) for 10 min at 37 °C, followed by treatment with compounds 17, 53, or 57 at IC50 concentrations for 72 h. After incubation, cells were washed, trypsinized, and analyzed by flow cytometry to assess cell division based on CFSE fluorescence intensity.

B16F10 cells [12] = test: NO production (DAF-FM staining, flow cytometry); assay type: cell-based, mouse; details: B16F10, IC50 concentration, 72 h
Method: (§2) To assess intracellular ROS/RNS levels, B16F10 cells were first stained with 1 µM DHR for 10 min at 37 °C. Following staining, cells were treated with LLPs 17, 53 or 58 at their IC50 concentrations for 72 h. After treatment, cells were trypsinized, washed with PBS, and analyzed by flow cytometry to quantify DHR fluorescence, indicative of ROS/RNS production. For NO detection, B16F10 cells were treated under identical conditions using the same LLP concentrations. After 72 h, cells were incubated with 5 µM DAF-FM diacetate in RPMI 1640 supplemented with 10% FCS for 1 h at 37 °C. The stain was then deactivated by incubation for 15 min with a serum-free medium. Finally, cells were detached, washed with PBS, and subjected to flow cytometric analysis to assess intracellular NO levels.

B16F10 cells [13] = test: ROS/RNS production (DHR staining, flow cytometry); assay type: cell-based, mouse; details: B16F10, IC50 concentration, 72 h, versus untreated control
Method: as §2

[14] = system: HeLa (human cervical adenocarcinoma) cells; details: CV assay, 72 h; mean ± SD; cited from earlier work
Method: Table 1 IC50 value (µM) for cytotoxic LLPs (72 h, CV assay). Data represent mean ± SD from three independent biological experiments, each performed with eight technical replicates per concentration. | column: HeLa

[15] = system: NIH3T3 mouse embryonic fibroblasts; assay type: cell-based; details: 72 h
Method: as §1

[16] = system: B16F10 (mouse skin melanoma) cells; details: CV assay, 72 h; mean ± SD; cited from earlier work
Method: Table 1 IC50 value (µM) for cytotoxic LLPs (72 h, CV assay). Data represent mean ± SD from three independent biological experiments, each performed with eight technical replicates per concentration. | column: B16F10

[17] = MTT assay, mean ± SD of three independent biological experiments, read-out: IC50 HeLa
[18] = MTT assay, mean ± SD of three independent biological experiments, read-out: IC50 B16F10
[19] = B16F10, double IC50 concentration

IC50 [1, 17] [µM]	IC50 [2] [µM]	IC50 [3] [µM]	IC50 [1] [µM]	IC50 [4] [µM]	IC50 [5] [µM]	IC50 [7] [µM]	Structure (SMILES)	cells in the sub-G1 phase (B16F10 cells [9]; B16F10, IC50 concentration)	cells in the sub-G1 phase (B16F10 cells [9]; [19])	proportion of apoptotic cells (B16F10 cells [10])	caspase activation (ApoStat fluorescence) (caspases in B16F10 cells)	cell division profile (CFSE) (B16F10 cells [11])	NO production (B16F10 cells [12])	ROS/RNS production (B16F10 cells [13])	further results
15.4 ± 0.4	–	–	–	–	–	–	CCCCCCCCCCCCCCCC(=O)N(CCCCN=[N+]=[N-])CC(=O)NCC(=O)N(CCCCN=[N+]=[N-])CC(=O)NCC(=O)OC [Compound 55]	–	–	–	–	–	–	–	–
–	8 ± 0.4	8.1 ± 0.1	8.2 ± 0.3	8 ± 0.9	–	–	CCCCCCCCCCCCCCCCCC(=O)N(CCCCNC(=O)OC(C)(C)C)CC(=O)NCC(=O)N(CCCCNC(=O)OC(C)(C)C)CC(=O)NCC(=O)OC [Compound 46] (Stearoyl-[Nlys](Boc)G[Nlys](Boc)G-OMe)	–	–	–	–	–	–	–	–
–	–	11.5 ± 1.3	–	11.1 ± 1.2	–	–	CCCCCCCCCCCCCCCCCCCC(=O)N(CCCCN=[N+]=[N-])CC(=O)NCC(=O)N(CCCCN=[N+]=[N-])CC(=O)NCC(=O)OC [Compound 59]	–	–	–	–	–	–	–	–
–	6.6 ± 0.3	–	6.4 ± 0.9	–	6.2 ± 0.2	6.5 ± 0.6	CCCCCCCCCCCCCCCC(=O)N(CCCCCCNC(=O)OC(C)(C)C)CC(=O)NCC(=O)N(CCCCCCNC(=O)OC(C)(C)C)CC(=O)NCC(=O)OC [Compound 3]	–	–	–	–	–	–	–	IC50 [6]: 6.1 ± 0.2 µM; IC50 [8]: 5.9 ± 0.1 µM; IC50 [3, 18]: 6.1 ± 0.1 µM
–	7.9 ± 0.6	–	8 ± 0.5	–	7.8 ± 0.9	7.5 ± 0.1	CCCCCCCCCCCCCCCCC(=O)N(CCCCNC(=O)OC(C)(C)C)CC(=O)NCC(=O)N(CCCCNC(=O)OC(C)(C)C)CC(=O)NCC(=O)OC [Compound 45] (Heptadecanoyl-[Nlys](Boc)G[Nlys](Boc)G-OMe)	–	–	–	–	–	–	–	IC50 [3, 18]: 8 ± 0.2 µM
5.6 ± 0.3	–	5.7 ± 0.3	–	5.6 ± 0.4	4.1 ± 0.8	4 ± 0.6	CCCCCCCCCCCCCC(=O)N(CCNC(=O)OC(C)(C)C)CC(=O)NCC(=O)N(CCNC(=O)OC(C)(C)C)CC(=O)NCC(=O)OC [Compound 17]	approximately 20%	50–60%	approximately 15%	gradual enhancement in the fluorescence signal	notably reduced the proportion of cells undergoing successive divisions	increased NO production	moderate ROS/RNS generation	IC50 [6]: 4.1 ± 0.6 µM; IC50 [8]: 4 ± 0.3 µM
–	7.7 ± 0.2	7.5 ± 0.2	7.8 ± 0.3	7.4 ± 0.1	9.1 ± 0.2	8.7 ± 0.3	CCCCCCCCCCCCCCCCCCC(=O)N(CCCCN=[N+]=[N-])CC(=O)NCC(=O)N(CCCCN=[N+]=[N-])CC(=O)NCC(=O)OC [Compound 58]	approximately 20%	50–60%	approximately 15%	clearer caspase activation was detected	notably reduced the proportion of cells undergoing successive divisions	increased NO production	marked increase	–
–	–	8 ± 0.2	–	7.7 ± 0.3	–	–	CCCCCCCCCCCCCCCC(=O)N(CCc1ccc(O)cc1)CC(=O)NCC(=O)OC [Compound 53]	approximately 20%	50–60%	approximately 15%	gradual enhancement in the fluorescence signal	notably reduced the proportion of cells undergoing successive divisions	only a slight increase	only slightly enhanced	–
–	–	50.3 ± 0.6	64.9 ± 0.8	–	–	–	CC(C)CCCCCCCCC[C@@H]1CC(=O)N[C@@H](CCC(=O)O)C(=O)N[C@@H](CC(C)C)C(=O)N[C@H](CC(C)C)C(=O)N[C@@H](C(C)C)C(=O)N[C@@H](CC(=O)O)C(=O)N[C@H](CC(C)C)C(=O)N[C@@H](CC(C)C)C(=O)O1 [Surfactin, surfactin, reference compound] (EL[dL]VD[dL]L; linker N-C via X1 (inferred))	–	–	–	–	–	–	–	IC50 [14]: 76.2 ± 1.6 µM; NIH3T3 cell viability [15]: approximately 25%; IC50 [16]: 40.4 ± 0.3 µM
12.3 ± 0.8	–	–	–	–	–	–	CCCCCCCCCCCCCC(=O)N(CCCCNC(=O)OC(C)(C)C)CC(=O)NCC(=O)N(CCCCNC(=O)OC(C)(C)C)CC(=O)NCC(=O)OC [Compound 47] (Myristoyl-[Nlys](Boc)G[Nlys](Boc)G-OMe)	–	–	–	–	–	–	–	–

From publication PMC12735945, “Synthetic Linear Lipopeptides and Lipopeptoids Induce Apoptosis and Oxidative Stress: In Vitro Cytotoxicity and SAR Evaluation Against Cancer Cell Lines” (Pharmaceuticals, 2025)
